“And” between values parts separate entries of the source, which are not always exact repeats. Equal values may be shown once. Read-outs that look alike come from different tables or passages of the source.
Assay: CSF concentrations of 3-SPA at Week 78 in North American Phase 3 tramiprosate trial (LC-MS/MS)
Type: in vivo, human
Settings: 150 mg BID tramiprosate; for concentration at 78 week: human, CSF, oral, 150 mg BID
Experimental: The samples were withdrawn from the freezer and shipped on dry ice to Nextcea Inc. (Woburn, MA) and stored in a freezer set to maintain−80° C. after receipt. The CSF collection and storage were carried out after subjects signed an informed consent in accordance with the ethical guidelines in the Czech Republic and good clinical practice, and according to the widely recognized consensus protocol for the standardization of CSF collection and biobanking (Viola et al., Amyloid β oligomers in Alzheimer's disease pathogenesis, treatment, and diagnosis. Acta Neuropathol 2015; 129:183-206; and Vanderstichele et al. Standardization of preanalytical aspects of cerebrospinal fluid biomarker testing for Alzheimer's disease diagnosis: A consensus paper from the Alzheimer's Biomarkers Standardization Initiative. Alzheimers Dement 2012; 8(1):65-73). Commercial ELISA kits (Innogenetics NV, Ghent, Belgium) were used for dementia biomarker analyses (Aβ1-42, tau protein, and phospho-tau), and cut off values derived from a validation study were used. CSF concentrations of 3-SPA were also quantified in 12 patients receiving the 150 mg BID dose of tramiprosate at Week 78 of the Phase 3 North American AD trial.
The 3-SPA reference material and human CSF samples were mixed with N-ethyl-N′-(3-dimethylaminopropyl) carbodiimide (EDC) and 2,2,2-trifluro ethylamine (TFEA). The samples were vortexed and reacted at room temperature for 30 minutes. The reactions were centrifuged at 4500 rpm for 5 minutes. The supernatant was transferred to a new plate for analysis. 3-SPA was identified and characterized using LC-MS and LC-MS/MS. Injections were made onto a Thermo Scientific AQUASIL 5 μm, 50×2.1 mm column using a Shimadzu autosampler and UPLC pump. Mobile phase A was 0.1% trifluoroacetic acid in water (v/v). Mobile phase B was 0.1% formic acid in 90/10 acetonitrile/water (v/v). The flow rate was 0.35 mL/min. The total running time per sample was 4 min. An API 6500 triple quadrupole mass spectrometer was used for detection. Data were acquired in negative LC-MS and LC-MS/MS modes. Representative chromatograms of 3-SPA in crude native material and human CSF derivatized with EDC and TFEA are shown in FIG. 7, FIG. 8 Panel A, and FIG. 8 Panel B. LC-MS and LC-MS/MS data were acquired using Analyst software (AB Sciex, Foster City, CA). LOQ for the LC-MS/MS method was 0.1 ng/ml with a dynamic range of 0.1 to 1000 ng/ml (r=0.99688 and % CV 5.8%±2.0; data on file). 3-SPA was identified in human CSF by matching the chromatographic retention time and by co-elution of the LC-MS/MS transition ions to the authentic 3-SPA reference standard (synthesized by Paraza Pharma, Montreal, Canada).
The levels of 3-SPA of in patients with a variety of cognition impairing diseases, including AD, ranged from 4.15 to 27.7 nM (0.64-4.27 ng/ml) (Table 1). When related to the CSF concentrations of Aβ42 monomers in AD patients (0.04 nM to 0.1 nM) (Bakan et al., ProDy: protein dynamics inferred from theory and experiments. Bioinformatics 2011; 27:1575-7; Shaw et al. Cerebrospinal fluid biomarker signature in Alzheimer's disease neuroimaging initiative subjects. Ann Neurol 2009; 65:403-13; Pannee et al. Reference measurement procedure for CSF Abeta1-42 and the CSF Abeta1-42/Abeta1-40 ratio—a crossvalidation study against Amyloid PET. J. Neurochem 2016; and Lambert et al. Diffusible, nonfibrillar ligands derived from A 1-42 are potent central nervous system neurotoxins. PNAS. 1998; 95:6448-53), there is an approximately 40-700 fold excess of 3-SPA over soluble Aβ42 monomers, which falls within the range where partial Aβ anti-oligomer aggregation activity may occur in some patients (Table 3). Furthermore, retrospective analyses of the CSF of a subset of patients from the tramiprosate Phase 3 trial were also evaluated for presence of 3-SPA, the primary metabolite of tramiprosate. […]

CSF concentration of 3-SPA, Median (Week 78): 19.3 ng/ml and 127.5 nM
CSF concentration of 3-SPA, Minimum-maximum (Week 78): 17.3-35.7 ng/ml and 114.3-235.8 nM
increase of mean CSF 3-SPA over levels observed in drug naïve patients (Week 78): 12.6 fold
CSF concentration of 3-SPA, Mean ± SD (Week 78, n=6): 22.3 ± 7.9 ng/ml and 147 ± 51.3 nM
concentration at 78 week (Week 78, n=6, read-out: CSF concentration of 3-SPA, Mean ± SD): 147 nM
concentration at 78 week (Week 78, read-out: CSF concentration of 3-SPA, Minimum-maximum): 114 to 236 nM
SMILES: O=C(O)CCS(=O)(=O)O [3-SPA, 3-sulfopropanoic acid]

Source: patent US12083082B2, “Methods for treating neurodegenerative disorders” (Alzheon, Inc., priority 2018, dated 2024)
